Data: patent publication US20100227853A1, “INHIBITORS OF CYCLIC AMP PHOSPHODIESTERASES” (Trustees of Boston College, priority 2008, published 2010)

Columns and labels:
PDE4D2-CAT = molecular target: T1, PDE4D2-CAT (Homo sapiens, UniProt Q08499); experiment: in vitro enzyme assay, catalytic fragment of PDE4D2 (residues 86-413); type: biochemical
T1 construct: 86-413; made in house; host or cells: E. coli

PDE7B [1] = molecular target: T2, PDE7B (Rattus norvegicus, UniProt A0A0G2JXU0); experiment: in vitro enzyme assay of PDE7B activity in extracts from rat pulmonary endothelial cells; type: biochemical
T2 construct: endogenous in cells; host or cells: rat pulmonary endothelial cells (extract)
T2 sequence (A0A0G2JXU0 1-446): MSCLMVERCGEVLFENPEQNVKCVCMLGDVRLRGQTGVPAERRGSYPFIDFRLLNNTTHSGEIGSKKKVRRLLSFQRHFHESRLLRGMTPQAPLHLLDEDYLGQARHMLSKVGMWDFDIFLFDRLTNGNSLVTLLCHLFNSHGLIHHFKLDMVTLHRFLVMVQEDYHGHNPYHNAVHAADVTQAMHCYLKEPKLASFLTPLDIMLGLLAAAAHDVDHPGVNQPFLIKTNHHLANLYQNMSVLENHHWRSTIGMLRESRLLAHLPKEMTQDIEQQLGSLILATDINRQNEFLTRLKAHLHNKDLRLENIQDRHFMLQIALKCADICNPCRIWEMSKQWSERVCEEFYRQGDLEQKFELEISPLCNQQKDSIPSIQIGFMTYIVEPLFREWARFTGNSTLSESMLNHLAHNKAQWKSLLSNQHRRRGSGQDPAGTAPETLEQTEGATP
Text: FIG. 13 is the in vitro enzyme assays of PDE7B activity in extracts made from rat pulmonary endothelial cells.

U937 cells = experiment: TNF alpha release by LPS-treated U937 cells; type: cell-based
Lymphoma cells = experiment: in vitro assay on lymphoma cells (24 hours, Hoechst stain, fsc/ssc); type: cell-based
Description: FIGS. 6A and 6B show the in vitro assay of BC54 action. Lymphoma cells are treated with the drug for 24 hours, then stained with Hoechst dye. The cells form a clearly defined population on the fsc/ssc dot plot. Vincristine treatment was used as a positive control. […] BC54 is referred to in the figure as S54.

CLL = CLL assay; type: cell-based
[2] = test system: PDE4A, PDE4B, PDE4D, PDE7A, PDE7B, PDE8A, PDE3A; experiment: Summary of PDE inhibitor profile
PDE7B [3] = molecular target: T3, PDE7B (Homo sapiens, UniProt Q9NP56); experiment: in vitro enzyme assay, PDE7B catalytic domain from E. coli, hydrolysis of cAMP to AMP; type: biochemical; set-up: The PDE7B catalytic domain was expressed in and purified from E. coli; made in house; host or cells: E. coli
Description: The PDE7B catalytic domain was expressed in and purified from E. coli and tested for activity in an in vitro enzyme assay, measuring the hydrolysis of cAMP to AMP. Four dilutions of the enzyme preparation were tested at various compound concentrations (X axis). The percent of cAMP hydrolyzed is plotted on the Y axis.
Target sequence in this assay (Q9NP56 97-420 limits assumed, species assumed): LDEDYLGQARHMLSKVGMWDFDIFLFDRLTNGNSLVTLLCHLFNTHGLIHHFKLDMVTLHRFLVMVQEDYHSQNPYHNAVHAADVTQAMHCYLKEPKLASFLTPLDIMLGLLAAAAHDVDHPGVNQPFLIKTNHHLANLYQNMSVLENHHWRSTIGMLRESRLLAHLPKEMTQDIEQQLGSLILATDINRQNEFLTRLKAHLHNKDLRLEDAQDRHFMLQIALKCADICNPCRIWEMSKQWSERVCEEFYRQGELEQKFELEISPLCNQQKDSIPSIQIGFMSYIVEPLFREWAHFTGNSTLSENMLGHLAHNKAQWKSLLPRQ

PDE7B [4] = molecular target: T3, PDE7B; experiment: 5FOA growth assay in fission yeast strain expressing PDE7B; type: cell-based; set-up: targets used in the assays are full-length proteins (as opposed to simply the catalytic domain); expressed in transfected cells; host or cells: Schizosaccharomyces pombe
Description: (§1) PDE inhibition allows growth in 5FOA medium as measured by optical density after 48 hours incubation at 30° C. Compound BC12 and six structural analogs were tested for growth stimulation.
(§2) Cells were pregrown in EMM medium [MP Biomedicals (Solon, Ohio), 3% glucose, filter-sterilized to avoid carmelization, which would introduce variability into the optical density of the medium] containing from 0 mM to 2.5 mM cAMP (or either 0.5 mM or 1.0 mM cGMP). This was to repress expression of the fbp1-ura4 reporter prior to exposure of cells to 5FOA medium. Cells were grown at 30° C. to exponential phase (approximately 10^7 cells/ml). Cells were collected by centrifugation and resuspended in 5FOA medium, and 25 μl were transferred to 384-well microtiter dishes (untreated, with flat clear bottoms) that had been pre-filled with 25 μl 5FOA medium and pre-pinned with 100 nl of compounds (stock solutions were generally 10 mM). Starting cell concentrations ranged from 0.5×10^5 to 4×10^5 cells/ml depending on the screening strain. […] Other positive control dishes contained 5 mM cAMP in the 5FOA medium for PDEs that lack appropriate control compounds. Cultures were grown for 48 hours at 30° C., sealed in an airtight container with moist paper towels to prevent evaporation. Optical densities (OD600) of cultures were measured using a microplate reader. Bioinformatic analysis of the results to determine composite Z scores was performed as previously described (1, 3).
Target sequence in this assay (Q9NP56 whole entry, species assumed, the tested form may be a part): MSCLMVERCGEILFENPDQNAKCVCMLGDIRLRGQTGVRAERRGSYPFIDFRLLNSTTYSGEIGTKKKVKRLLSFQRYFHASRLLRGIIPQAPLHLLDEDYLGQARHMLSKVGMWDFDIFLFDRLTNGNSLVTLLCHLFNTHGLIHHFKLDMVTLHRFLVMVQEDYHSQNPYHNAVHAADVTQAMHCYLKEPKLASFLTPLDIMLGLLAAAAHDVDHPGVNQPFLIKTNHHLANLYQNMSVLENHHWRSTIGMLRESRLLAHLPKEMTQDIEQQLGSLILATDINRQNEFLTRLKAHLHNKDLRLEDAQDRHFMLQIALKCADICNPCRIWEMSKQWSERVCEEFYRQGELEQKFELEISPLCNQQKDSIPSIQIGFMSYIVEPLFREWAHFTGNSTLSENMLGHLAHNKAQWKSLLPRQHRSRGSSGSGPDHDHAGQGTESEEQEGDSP

PDE7A [5] = molecular target: T4, PDE7A (Homo sapiens, UniProt Q13946); experiment: 5FOA growth assay in fission yeast strain expressing PDE7A; type: cell-based; set-up: targets used in the assays are full-length proteins (as opposed to simply the catalytic domain); expressed in transfected cells; host or cells: Schizosaccharomyces pombe, PDE gene integrated in place of cgs2
Description: as §1, §2

PDE4D2-FL = molecular target: T5, PDE4D2-FL (Homo sapiens, UniProt Q08499); experiment: in vitro enzyme assay, full-length PDE4D2 (residues 1-507); type: biochemical; details: read-out: IC50 (or AC200), PDE4D2-FL
T5 construct: 1-507; made in house; host or cells: E. coli

PDE7A [6] = molecular target: T4, PDE7A; experiment: in vitro enzyme assay PDE7A; type: biochemical; set-up: made in house; host or cells: E. coli; details: E. coli expressed and purified enzyme; read-out: IC50 (or AC200), PDE7A
PDE8A = molecular target: T6, PDE8A (Mus musculus, UniProt O88502); experiment: fbp1-lacZ β-galactosidase reporter assay, PDE8A strain; type: cell-based, murine
T6 construct: targets used in the assays are full-length proteins (as opposed to simply the catalytic domain); expressed in transfected cells; host or cells: Schizosaccharomyces pombe, PDE gene integrated in place of cgs2 (strains CHP1141, DDP13)
T6 sequence (O88502 1-823): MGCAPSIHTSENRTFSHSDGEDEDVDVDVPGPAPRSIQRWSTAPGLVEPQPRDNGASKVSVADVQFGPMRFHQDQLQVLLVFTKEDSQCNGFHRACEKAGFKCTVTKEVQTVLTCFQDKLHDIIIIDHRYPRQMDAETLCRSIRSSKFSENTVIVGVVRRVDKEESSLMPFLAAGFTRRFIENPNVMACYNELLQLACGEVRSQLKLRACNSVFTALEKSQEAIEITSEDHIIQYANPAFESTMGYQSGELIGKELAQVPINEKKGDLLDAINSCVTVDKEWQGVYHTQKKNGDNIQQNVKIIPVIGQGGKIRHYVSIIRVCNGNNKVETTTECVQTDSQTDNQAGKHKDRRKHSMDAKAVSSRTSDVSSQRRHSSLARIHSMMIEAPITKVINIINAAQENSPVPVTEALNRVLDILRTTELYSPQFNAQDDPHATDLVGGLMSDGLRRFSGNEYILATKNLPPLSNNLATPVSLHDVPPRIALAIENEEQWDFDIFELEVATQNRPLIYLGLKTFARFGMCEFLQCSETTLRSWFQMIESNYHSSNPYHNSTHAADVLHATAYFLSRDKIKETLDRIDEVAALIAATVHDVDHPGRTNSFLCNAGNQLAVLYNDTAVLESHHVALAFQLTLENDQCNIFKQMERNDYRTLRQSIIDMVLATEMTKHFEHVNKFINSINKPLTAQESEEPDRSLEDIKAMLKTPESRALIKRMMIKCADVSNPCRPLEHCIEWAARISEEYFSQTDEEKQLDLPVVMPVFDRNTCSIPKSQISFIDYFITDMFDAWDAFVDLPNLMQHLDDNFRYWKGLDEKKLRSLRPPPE
Description: β-galactosidase assays and characterization of 5FOA-sensitivity were carried out as previously described^10. cAMP assays were performed on exponential phase cells grown in EMM complete medium (3% glucose), using the Assay Designs cAMP EIA kit, according to manufacturer's instructions (Assay Designs, Ann arbor, Mich.).
The effect of known PDE inhibitors on the expression of the fbp1-lacZ fusion in murine PDE-expressing strains was tested. […] For Table 4 β-galactosidase activity was determined from 3 to 4 independent exponential phase cultures. The average±SD represents specific activity per milligram of soluble protein.

PDE4A1 = molecular target: T7, PDE4A1 (Mus musculus, UniProt O89084); experiment: cAMP response in yeast strain expressing PDE4A1; type: cell-based, Murine
T7 construct: targets used in the assays are full-length proteins (as opposed to simply the catalytic domain); expressed in transfected cells; host or cells: Schizosaccharomyces pombe, PDE gene integrated in place of cgs2
T7 sequence (O89084 1-610 isoform O89084-2): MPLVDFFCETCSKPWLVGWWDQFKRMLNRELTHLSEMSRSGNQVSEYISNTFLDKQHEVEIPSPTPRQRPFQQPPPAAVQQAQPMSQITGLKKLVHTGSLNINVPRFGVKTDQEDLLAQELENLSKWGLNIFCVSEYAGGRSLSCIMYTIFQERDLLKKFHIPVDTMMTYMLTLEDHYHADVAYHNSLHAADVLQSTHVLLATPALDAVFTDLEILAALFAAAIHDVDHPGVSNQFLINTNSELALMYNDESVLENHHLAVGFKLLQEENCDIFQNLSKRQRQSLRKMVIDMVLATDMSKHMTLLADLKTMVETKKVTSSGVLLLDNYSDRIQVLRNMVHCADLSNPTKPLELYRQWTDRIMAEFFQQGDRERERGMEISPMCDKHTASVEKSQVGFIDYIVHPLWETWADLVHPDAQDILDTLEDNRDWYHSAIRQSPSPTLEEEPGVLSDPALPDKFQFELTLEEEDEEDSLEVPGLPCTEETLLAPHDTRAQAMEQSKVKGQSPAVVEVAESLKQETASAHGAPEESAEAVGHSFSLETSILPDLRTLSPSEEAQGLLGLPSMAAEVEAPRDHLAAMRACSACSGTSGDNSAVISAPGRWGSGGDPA
Text: Values represent the average and SD of two or three independent experiments. […] The strains used are as in FIG. 5A, together with strain CHP1141 (PDE8A). Values represent the average and SD of two or three independent experiments.
Thus, PDE inhibition can be indirectly quantitated by measuring the effect of a compound on cAMP levels in target yeast strains.

[7] = test system: PDE4A, PDE4B, PDE4D, PDE7A, PDE7B, PDE8A, PDE3A; experiment: Summary of PDE inhibitor profile; set-up: key: (1): Strong PDE7A inhibitor, weak to moderate PDE4A, 4B inhibitor; (2): Strong PDE7A and PDE4s (including PDE4D) inhibitor; (3): Strong PDE7A inhibitor; details: overall classification, Table 18 footnotes
[8] = optical density after 48 hours at 30° C.

T4 sequence (Q13946 whole entry, the tested form may be a part): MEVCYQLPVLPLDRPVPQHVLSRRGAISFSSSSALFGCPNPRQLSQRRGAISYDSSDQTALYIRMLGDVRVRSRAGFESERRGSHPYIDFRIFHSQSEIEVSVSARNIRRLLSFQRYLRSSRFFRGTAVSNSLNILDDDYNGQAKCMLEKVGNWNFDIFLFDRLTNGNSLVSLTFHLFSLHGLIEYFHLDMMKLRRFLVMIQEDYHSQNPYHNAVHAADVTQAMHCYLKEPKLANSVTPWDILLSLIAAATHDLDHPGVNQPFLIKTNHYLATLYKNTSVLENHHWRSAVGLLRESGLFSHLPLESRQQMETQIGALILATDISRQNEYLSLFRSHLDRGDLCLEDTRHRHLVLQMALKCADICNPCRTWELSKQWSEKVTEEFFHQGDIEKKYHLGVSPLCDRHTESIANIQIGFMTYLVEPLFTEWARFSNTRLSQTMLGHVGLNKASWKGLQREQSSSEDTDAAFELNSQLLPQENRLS
T1 sequence (Q08499 388-715): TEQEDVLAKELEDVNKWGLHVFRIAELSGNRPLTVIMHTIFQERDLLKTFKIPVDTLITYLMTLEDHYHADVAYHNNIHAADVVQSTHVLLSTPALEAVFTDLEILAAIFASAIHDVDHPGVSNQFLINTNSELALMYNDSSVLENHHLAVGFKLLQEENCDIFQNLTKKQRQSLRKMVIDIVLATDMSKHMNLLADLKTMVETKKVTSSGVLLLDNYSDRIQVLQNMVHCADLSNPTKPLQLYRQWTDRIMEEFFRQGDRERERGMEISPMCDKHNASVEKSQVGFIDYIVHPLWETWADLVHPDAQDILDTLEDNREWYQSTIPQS
T5 sequence (Q08499 303-809): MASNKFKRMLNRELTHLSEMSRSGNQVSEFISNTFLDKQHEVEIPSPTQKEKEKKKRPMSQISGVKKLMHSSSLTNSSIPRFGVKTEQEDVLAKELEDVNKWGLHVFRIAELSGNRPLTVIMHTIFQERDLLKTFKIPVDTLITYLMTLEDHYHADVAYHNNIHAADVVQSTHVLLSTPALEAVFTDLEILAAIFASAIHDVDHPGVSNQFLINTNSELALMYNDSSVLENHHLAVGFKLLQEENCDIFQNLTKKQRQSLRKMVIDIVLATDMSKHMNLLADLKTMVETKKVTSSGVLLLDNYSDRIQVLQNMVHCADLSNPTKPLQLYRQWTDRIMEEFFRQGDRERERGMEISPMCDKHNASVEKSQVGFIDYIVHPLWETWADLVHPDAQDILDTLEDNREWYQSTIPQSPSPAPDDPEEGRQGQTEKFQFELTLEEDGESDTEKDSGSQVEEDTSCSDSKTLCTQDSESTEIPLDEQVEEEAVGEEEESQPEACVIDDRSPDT

CN(C)c1ccc(/C=C/C=C2/C(=O)NC(=O)N(c3ccccc3)C2=O)cc1 [BC12]
PDE4D catalytic domain, 2 uM cpm (PDE4D2-CAT; 2 uM compound): 3686 cpm
activity at 2 µM (PDE4D2-CAT; 2 micromolar compound, DMSO = 100, read-out: In vitro activation of PDE4D catalytic domain, % activity): 133%
inhibition of PDE7B from pulmonary endothelial cells, in words (PDE7B [1]): potent inhibitor
Ki (PDE7B [1]; KI on PDE7 (PDE7B) from rat pulmonary endothelial cells, cell extracts): ~0.2 µM
KI lower than that of BRL50481 (PDE7B [1]; PDE7B, rat pulmonary endothelial cell extracts): approximately 100 fold
TNF alpha reduction, conclusion in words (U937 cells): shows activity
apoptosis of lymphoma cells, in words (Lymphoma cells): apoptosis effect
activity in CLL assay, in words (CLL): shows activity
PDE inhibitor profile, in words [2]: PDE7 inhibitor that appears to activate PDE4D and PDE7B in vitro (not in vivo)
PDE7B, 2 uM cpm (PDE7B [3]; 2 uM compound): 2388 cpm
effect on cAMP hydrolysis by PDE7B in vitro, in words (PDE7B [3]; E. coli-expressed catalytic domain): increases cAMP hydrolysis
5FOA growth response, PDE7B strain, in words (PDE7B [4]; [8]): most potent inhibitor, promoting growth at low micromolar concentrations
5FOA growth response, PDE7A strain, in words (PDE7A [5]; [8]): most potent inhibitor, promoting growth at low micromolar concentrations

Cc1ccc([N+](=O)[O-])cc1S(=O)(=O)N(C)C [BRL50481, reference compound]
IC50 (PDE4D2-FL): > 20 µM
IC50 (PDE7A [6]): 0.2 µM
IC50 (PDE7B [3]; AC200 = [Compound] that doubles PDE activity, read-out: IC50 (or AC200), PDE7B): 18 µM
EC50 (PDE7B [4]; OD600 0.6, read-out: ED50 for 5FOA growth assays, PDE7B): 42 µM
EC50 (PDE7A [5]; OD600 0.6, read-out: ED50 for 5FOA growth assays, PDE7A): 1.3 µM

OCCN(CCO)c1nc(N2CCCCC2)c2nc(N(CCO)CCO)nc(N3CCCCC3)c2n1 [dipyridamole, Dipyridamole]
inhibition of PDE8A in yeast, in words (PDE8A): not able to be inhibited

Cc1cc(C)nc(SCCS(=O)(=O)c2ccc(C(C)(C)C)cc2)n1 [Compound 26]
cAMP Response (% rolipram), 4A1 (PDE4A1): 96.00 % rolipram

COc1ccc2c(c1)C1(C)CCC(=O)CC1CC2 (single isomer, unassigned) [Compound 39]
PDE inhibitor profile (Table 18) [7]: 39 (1)
